# Measured values as given in patent US8927500B2, “Peptidomimetic macrocycles” (Aileron Therapeutics, Inc., priority 2012, dated 2015).
# Read-outs that look alike come from different tables or passages of the source. Where a SMILES comes first, the peptide text is derived from it. Bridges are numbered along the chain shown (N, C = ends). [ ]: non-standard residue; d: D form. Phe(4-B(OH)2) = N[C@@H](Cc1ccc(B(O)O)cc1)C(=O)O; R8 = C=CCCCCCC[C@@](C)(N)C(=O)O; Cba = N[C@@H](CC1CCC1)C(=O)O; hLeu = CC(C)CC[C@H](N)C(=O)O; S5 = C=CCCC[C@](C)(N)C(=O)O; Nle = CCCC[C@H](N)C(=O)O
# Tests used:
# MDM2 = MDM2 (Homo sapiens, UniProt Q00987); test: Competitive fluorescence polarization assay for MDM2; type: binding; settings: competitive FP assay, MDM2
# MDM2, sequence (Q00987 1-125): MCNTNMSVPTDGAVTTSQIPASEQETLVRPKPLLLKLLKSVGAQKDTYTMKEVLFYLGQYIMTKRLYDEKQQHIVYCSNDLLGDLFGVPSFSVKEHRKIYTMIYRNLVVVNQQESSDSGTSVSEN
# Protocol: Dilute 1 mM (in 100% DMSO) of FAM labeled linear peptide with DMSO to 100 μM (dilution 1:10). Then, dilute from 100 μM to 10 μM with water (dilution 1:10) and then dilute with FP buffer from 10 μM to 40 nM (dilution 1:250). This is the working solution which will be a 10 nM concentration in well (dilution 1:4). […] Then, dilute from 5 mM to 500 μM with H2O (dilution 1:10) and then dilute with FP buffer from 500 μM to 20 μM (dilution 1:25).
# Dilute 1 mM (in 100% DMSO) of FAM labeled linear peptide with DMSO to 100 μM (dilution 1:10). Then, dilute from 100 μM to 10 μM with water (dilution 1:10) and then dilute with FP buffer from 10 μM to 40 nM (dilution 1:250). This is the working solution which will be a 10 nM concentration in well (dilution 1:4). […] Dilute 10 mM (in 100% DMSO) with DMSO to 5 mM (dilution 1:2). Then, dilute from 5 mM to 500 μM with H2O (dilution 1:10) and then dilute with FP buffer from 500 μM to 20 μM (dilution 1:25). […] Transfer 10 μl of serial diluted unlabeled peptides to each well which is filled with 20 μl of 300 nM of protein. • 7. Add 10 μl of 10 nM (4×) of FAM labeled peptide into each well and incubate for 3 hr to read.
# MDMX = biological target: T1, MDMX (Homo sapiens, UniProt O15151); test: Competitive fluorescence polarization assay for MDMX; type: binding; settings: competitive FP assay
# T1 sequence (O15151 1-125): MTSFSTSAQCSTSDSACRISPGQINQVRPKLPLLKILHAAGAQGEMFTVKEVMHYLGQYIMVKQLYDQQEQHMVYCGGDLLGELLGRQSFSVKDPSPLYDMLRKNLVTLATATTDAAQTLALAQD
Structure (SMILES),IC50 (MDM2; read-out: IC50 (MDM2)) [nM],Ki (MDM2; read-out: Ki (MDM2)) [nM],IC50 (MDMX; read-out: IC50 (MDMX)) [nM],Ki (MDMX; read-out: Ki (MDMX)) [nM],IC50 (MDM2; IC50 (MDM2)) [nM],Ki (MDM2; Ki (MDM2)) [nM],IC50 (MDMX; IC50 (MDMX)) [nM],Ki (MDMX; Ki (MDMX)) [nM]
CCCC[C@H](NC(=O)[C@H](C)NC(=O)[C@H](C)NC(=O)[C@]1(C)CCCC=CCCCCCC[C@@](C)(NC(=O)[C@H](Cc2ccccc2)NC(=O)[C@@H](NC(=O)[C@H](CC(C)C)NC(=O)[C@H](C)NC(=O)[C@H](C)NC(=O)[C@H](C)NC(C)=O)[C@@H](C)O)C(=O)N[C@@H](CCC(=O)O)C(=O)N[C@@H](Cc2ccc(O)cc2)C(=O)N[C@@H](Cc2c[nH]c3ccccc23)C(=O)N[C@@H](C)C(=O)N[C@@H](CCC(N)=O)C(=O)N[C@@H](CC(C)C)C(=O)N1)C(=O)N[C@@H](C)C(N)=O [compound 376] (Ac-AAALTF[R8]EYWAQL[S5]AA[Nle]A-NH2; staple 7-14),10 to 100,< 10,10 to 100,< 10,–,–,–,–
CCCC[C@H](NC(=O)[C@H](C)NC(=O)[C@H](C)NC(=O)[C@]1(C)CCCC=CCCCCCC[C@@](C)(NC(=O)[C@H](Cc2ccccc2)NC(=O)[C@@H](NC(=O)[C@H](CC(C)C)NC(C)=O)[C@@H](C)O)C(=O)N[C@@H](CCC(=O)O)C(=O)N[C@@H](Cc2ccc(O)cc2)C(=O)N[C@@H](Cc2c[nH]c3ccccc23)C(=O)N[C@@H](C)C(=O)N[C@@H](CCC(N)=O)C(=O)N[C@@H](CC(C)C)C(=O)N1)C(=O)N[C@@H](C)C(=O)N[C@@H](C)C(N)=O [compound 377] (Ac-LTF[R8]EYWAQL[S5]AA[Nle]AA-NH2; staple 4-11),10 to 100,< 10,10 to 100,10 to 100,–,–,–,–
CCCC[C@H](NC(=O)[C@H](C)NC(=O)[C@H](C)NC(=O)[C@]1(C)CCCC=CCCCCCC[C@@](C)(NC(=O)[C@H](Cc2ccccc2)NC(=O)[C@@H](NC(=O)[C@H](CC(C)C)NC(=O)[C@H](C)NC(C)=O)[C@@H](C)O)C(=O)N[C@@H](CCC(=O)O)C(=O)N[C@@H](Cc2ccc(O)cc2)C(=O)N[C@@H](Cc2c[nH]c3ccccc23)C(=O)N[C@@H](C)C(=O)N[C@@H](CCC(N)=O)C(=O)N[C@@H](CC(C)C)C(=O)N1)C(=O)N[C@@H](C)C(=O)N[C@@H](C)C(N)=O [compound 378] (Ac-ALTF[R8]EYWAQL[S5]AA[Nle]AA-NH2; staple 5-12),10 to 100,< 10,10 to 100,10 to 100,–,–,–,–
CCCC[C@H](NC(=O)[C@H](C)NC(=O)[C@H](C)NC(=O)[C@]1(C)CCCC=CCCCCCC[C@@](C)(NC(=O)[C@H](Cc2ccccc2)NC(=O)[C@@H](NC(=O)[C@H](CC(C)C)NC(C)=O)[C@@H](C)O)C(=O)N[C@@H](CCC(=O)O)C(=O)N[C@@H](Cc2ccc(O)cc2)C(=O)N[C@@H](Cc2c[nH]c3ccccc23)C(=O)N[C@@H](C)C(=O)N[C@@H](CCC(N)=O)C(=O)N[C@@H](CCC(C)C)C(=O)N1)C(=O)N[C@@H](C)C(=O)N[C@@H](C)C(N)=O [compound 381] (Ac-LTF[R8]EYWAQ[hLeu][S5]AA[Nle]AA-NH2; staple 4-11),10 to 100,< 10,10 to 100,10 to 100,–,–,–,–
CC(=O)N[C@@H](CC(C)C)C(=O)N[C@H](C(=O)N[C@@H](Cc1ccccc1)C(=O)N[C@]1(C)CCCCCCCCCCC[C@@](C)(C(=O)N[C@@H](C)C(=O)N[C@@H](C)C(=O)N[C@@H](C)C(=O)N[C@@H](C)C(=O)N[C@@H](C)C(=O)N[C@H](C)C(N)=O)NC(=O)[C@H](CC(C)C)NC(=O)[C@H](CCC(N)=O)NC(=O)[C@H](C)NC(=O)[C@H](Cc2c[nH]c3ccccc23)NC(=O)[C@H](Cc2ccc(O)cc2)NC(=O)[C@H](CCC(=O)O)NC1=O)[C@@H](C)O [compound 445],–,–,–,–,10 to 100,< 10,100 to 1000,10 to 100
CC(=O)N[C@@H](CC(C)C)C(=O)N[C@H](C(=O)N[C@@H](Cc1ccccc1)C(=O)N[C@]1(C)CCCCCCC=CCCC[C@@](C)(C(=O)N[C@@H](C)C(=O)N[C@@H](C)C(=O)N[C@@H](C)C(=O)N[C@@H](C)C(=O)N[C@@H](C)C(=O)N[C@H](C)C(N)=O)NC(=O)[C@H](CC(C)C)NC(=O)[C@H](CCC(N)=O)NC(=O)[C@H](C)NC(=O)[C@H](Cc2c[nH]c3ccccc23)NC(=O)[C@H](Cc2ccc(B(O)O)cc2)NC(=O)[C@H](CCC(=O)O)NC1=O)[C@@H](C)O [compound 556] (Ac-LTF[R8]E[Phe(4-B(OH)2)]WAQL[S5]AAAAA[dA]-NH2; staple 4-11),–,–,–,–,–,< 10,–,10 to 100
CC(=O)N[C@@H](C)C(=O)N[C@@H](C)C(=O)N[C@@H](C)C(=O)N[C@@H](CC(C)C)C(=O)N[C@H](C(=O)N[C@@H](Cc1ccccc1)C(=O)N[C@]1(C)CCCCCC/C=C/CCC[C@@](C)(C(=O)N[C@@H](C)C(=O)N[C@@H](C)C(=O)N[C@@H](C)C(=O)N[C@@H](C)C(=O)N[C@@H](C)C(=O)N[C@H](C)C(N)=O)NC(=O)[C@H](CC(C)C)NC(=O)[C@H](CCC(N)=O)NC(=O)[C@H](C)NC(=O)[C@H](Cc2c[nH]c3ccccc23)NC(=O)[C@H](Cc2ccc(O)cc2)NC(=O)[C@H](CCC(=O)O)NC1=O)[C@@H](C)O [compound 557] (Ac-AAALTF[R8]EYWAQL[S5]AAAAA[dA]-NH2; staple (E) 7-14),–,–,–,–,–,10 to 100,–,10 to 100

# Second part, led by results:
IC50 (MDM2; read-out: IC50 (MDM2)) [nM],Ki (MDM2; read-out: Ki (MDM2)) [nM],IC50 (MDMX; read-out: IC50 (MDMX)) [nM],Ki (MDMX; read-out: Ki (MDMX)) [nM],Structure (SMILES),IC50 (MDM2; IC50 (MDM2)) [nM],Ki (MDM2; Ki (MDM2)) [nM],IC50 (MDMX; IC50 (MDMX)) [nM],Ki (MDMX; Ki (MDMX)) [nM]
10 to 100,< 10,10 to 100,10 to 100,CCCC[C@H](NC(=O)[C@H](C)NC(=O)[C@H](C)NC(=O)[C@]1(C)CCCC=CCCCCCC[C@@](C)(NC(=O)[C@H](Cc2ccccc2)NC(=O)[C@@H](NC(=O)[C@H](CC(C)C)NC(=O)[C@H](C)NC(=O)[C@H](C)NC(C)=O)[C@@H](C)O)C(=O)N[C@@H](CCC(=O)O)C(=O)N[C@@H](Cc2ccc(O)cc2)C(=O)N[C@@H](Cc2c[nH]c3ccccc23)C(=O)N[C@@H](C)C(=O)N[C@@H](CCC(N)=O)C(=O)N[C@@H](CC(C)C)C(=O)N1)C(=O)N[C@@H](C)C(=O)N[C@@H](C)C(N)=O [compound 379] (Ac-AALTF[R8]EYWAQL[S5]AA[Nle]AA-NH2; staple 6-13),–,–,–,–
10 to 100,< 10,10 to 100,10 to 100,CCCC[C@H](NC(=O)[C@H](C)NC(=O)[C@H](C)NC(=O)[C@]1(C)CCCC=CCCCCCC[C@@](C)(NC(=O)[C@H](Cc2ccccc2)NC(=O)[C@@H](NC(=O)[C@H](CC(C)C)NC(C)=O)[C@@H](C)O)C(=O)N[C@@H](CCC(=O)O)C(=O)N[C@@H](Cc2ccc(O)cc2)C(=O)N[C@@H](Cc2c[nH]c3ccccc23)C(=O)N[C@@H](C)C(=O)N[C@@H](CCC(N)=O)C(=O)N[C@@H](CC2CCC2)C(=O)N1)C(=O)N[C@@H](C)C(=O)N[C@@H](C)C(N)=O [compound 380] (Ac-LTF[R8]EYWAQ[Cba][S5]AA[Nle]AA-NH2; staple 4-11),–,–,–,–
10 to 100,< 10,10 to 100,< 10,CCCC[C@H](NC(=O)[C@H](C)NC(=O)[C@H](C)NC(=O)[C@]1(C)CCCC=CCCCCCC[C@@](C)(NC(=O)[C@H](Cc2ccccc2)NC(=O)[C@@H](NC(=O)[C@H](CC(C)C)NC(=O)[C@H](C)NC(C)=O)[C@@H](C)O)C(=O)N[C@@H](CCC(=O)O)C(=O)N[C@@H](Cc2ccc(O)cc2)C(=O)N[C@@H](Cc2c[nH]c3ccccc23)C(=O)N[C@@H](C)C(=O)N[C@@H](CCC(N)=O)C(=O)N[C@@H](CCC(C)C)C(=O)N1)C(=O)N[C@@H](C)C(=O)N[C@@H](C)C(N)=O [compound 382] (Ac-ALTF[R8]EYWAQ[hLeu][S5]AA[Nle]AA-NH2; staple 5-12),–,–,–,–
100 to 1000,10 to 100,10 to 100,< 10,CCCC[C@H](NC(=O)[C@H](C)NC(=O)[C@H](C)NC(=O)[C@]1(C)CCC/C=C/CCCCCC[C@@](C)(NC(=O)[C@H](Cc2ccccc2)NC(=O)[C@@H](NC(=O)[C@H](CC(C)C)NC(C)=O)[C@@H](C)O)C(=O)N[C@@H](C)C(=O)N[C@@H](Cc2ccc(O)cc2)C(=O)N[C@@](C)(Cc2c[nH]c3ccccc23)C(=O)N[C@@H](C)C(=O)N[C@@H](CCC(N)=O)C(=O)N[C@@H](CC(C)C)C(=O)N1)C(=O)N[C@@H](C)C(N)=O [compound 388],–,–,–,–
100 to 1000,100 to 1000,> 1000,> 1000,C=CCCCCCC[C@@](C)(NC(=O)[C@H](Cc1ccccc1)NC(=O)[C@@H](NC(=O)[C@H](CC(C)C)NC(C)=O)[C@@H](C)O)C(=O)N[C@@H](C)C(=O)N[C@@H](Cc1ccc(O)cc1)C(=O)N[C@@H](Cc1c[nH]c2ccccc12)C(=O)N[C@@H](C)C(=O)N[C@@H](CCC(N)=O)C(=O)N[C@@H](CC(C)C)C(=O)N[C@@](C)(CCCC=C)C(=O)N[C@@H](C)C(=O)N[C@@H](C)C(=O)N[C@@H](CCCC)C(=O)N[C@@H](C)C(N)=O [compound 411],–,–,–,–
< 10,< 10,10 to 100,< 10,CCCC[C@H](NC(=O)[C@H](C)NC(=O)[C@H](C)NC(=O)C(C)(C)NC(=O)[C@H](CC(C)C)NC(=O)[C@H](CCC(N)=O)NC(=O)[C@H](C)NC(=O)[C@H](Cc1c[nH]c2ccccc12)NC(=O)[C@H](Cc1ccc(O)cc1)NC(=O)[C@H](C)NC(=O)C(C)(C)NC(=O)[C@H](Cc1ccccc1)NC(=O)[C@@H](NC(=O)[C@H](CC(C)C)NC(C)=O)[C@@H](C)O)C(=O)N[C@@H](C)C(N)=O [compound 412],–,–,–,–
10 to 100,< 10,10 to 100,10 to 100,CC(=O)N[C@@H](CC(C)C)C(=O)N[C@H](C(=O)N[C@@H](Cc1ccccc1)C(=O)N[C@]1(C)CCCCCCCCCCC[C@@](C)(C(=O)N[C@@H](CO)C(=O)N[C@@H](C)C(=O)N[C@@H](C)C(N)=O)NC(=O)[C@H](CC2CCC2)NC(=O)[C@H](CCC(N)=O)NC(=O)[C@H](C)NC(=O)[C@H](Cc2c[nH]c3ccccc23)NC(=O)[C@H](Cc2ccc(O)cc2)NC(=O)[C@H](CCC(=O)O)NC1=O)[C@@H](C)O [compound 434],–,–,–,–
